Data reported in patent publication US10113114B2, “Apparatus and method for coating particulate material” (BASF Corporation, priority 2013, dated 2018).

System: red imported fire ant (Solenopsis invicta) workers
Conditions: all rates tested (0.5 to 3 X label rate)
From the text: Testing with red imported fire ant (Solenopsis invicta, RIFA), Argentine ant (Linepthema humile), and odorous house ant (OHA) workers. Ten inch plastic arenas (inside walls coated with Fluon® to prevent escape) were provided a layer of moistened play sand. A band of mulch was placed across the arena near one side. Between the closest side and the mulch, a micro-centrifuge tube with a universal ant diet was placed. In the larger open area of the arena was placed a water vial and a small weigh boat with either corn grit+soybean oil (RIFA) or 20% honey water (Argentine ant and OHA). Approximately 100 ants were placed in each arena. Mortality was evaluated at 6 or 7 days.

**Q.** Which “efficacy of the insecticide on mulch (in words)” value does the source give for `CN/C(=N/CC1CCOC1)N[N+](=O)[O-]` (stereo not shown) [dinotefuran] here?
**A.** effective at all rates tested
